US20060165672A1, “Fatigue reducing agent” (KANEKA CORPORATION, priority 2003, published 2006)

How the values were obtained:
[1] = Coenzyme Q level in the muscle after oral administration for 5 days (HPLC); format: in vivo, male SD rats
Description: (§1) Reduced coenzyme Q10 obtained in the Reference Example 1 (containing about 1% of oxidized coenzyme Q10) was dissolved in soybean oil solution (reduced coenzyme Q10/soybean oil solution=20 mg/ml) and orally administered to male SD rats (6 weeks of age) at a dose of 100 mg/kg of reduced coenzyme Q10 (containing about 1% of oxidized coenzyme Q10), once a day for 5 days. Five days later, the muscles of the femoral region were collected, and coenzyme Q level in the muscle was measured. The measurement of the coenzyme Q level in the muscle was performed using HPLC. The harvested rat muscle (0.2 g) was homogenized after the addition of coenzyme Q7 (0.003 mg), ethanol (1 ml), distilled water (1 ml) and ferric chloride (0.01%), and then hexane (3 ml) was added. Coenzyme Q10 was extracted from the homogenate after shaking. After repeating this extraction operation twice, the extract was brought to dryness by evaporating hexane out, re-dissolved in 0.25 ml ethanol and injected to HPLC. HPLC condition is as follows; column: YMC-Pack (ODS-A303), detection wavelength: 275 nm, mobile phase: methanol (88%), hexane (12%), flow rate: 1 ml/min. The measurement of the ratio of reduced coenzyme Q10 and oxidized coenzyme Q10 in the muscle was carried out as follows. The harvested rat muscle (0.2 g) was homogenized after the addition of distilled water (0.2 ml) and ethanol (0.8 ml), and the homogenate was extracted by adding hexane (1.2 ml). After evaporating hexane under a stream of nitrogen, the extract was re-dissolved in ethanol (0.2 ml) and injected to HPLC. The condition of the HPLC operation was the same as the above except that the electrochemical detector was used. Soybean oil was administered to the control group.
Similarly oxidized coenzyme Q10 was administered and then the coenzyme Q level in the muscle was measured.

[2] = Level of reduced coenzyme Q in the muscle after oral administration (HPLC, electrochemical detector); format: in vivo, male SD rats; details: for Intramuscular level of reduced coenzyme Q (in words): after administration
Description: as §1
The level of reduced coenzyme Q in the muscle was measured after administration of reduced coenzyme Q10 in a manner similar to (Example 1).
The level of reduced coenzyme Q in the muscle was measured after administration of oxidized coenzyme Q10 in a manner similar to (Comparative Example 1).

[3] = system: male SD rats (7 weeks of age); assay: Tread mill test in young rats (maximum running time); format: in vivo, rat; details: for Maximum Running Time, Time prolonged: after minus before administration; for Maximum Running Time, After administration, relative to solvent control (100) / Maximum Running Time, Time prolonged, relative to solvent control (100) / Maximum Running Time, Before administration, relative to solvent control (100): value in parentheses; for Maximum Running Time, After administration: 2 hours after 300 mg/kg oral dose; for Maximum Running Time, Before administration: baseline before 300 mg/kg oral dose
Description: (§2) The anti-fatigue effect of reduced coenzyme Q10 (note that it contained about 1% of oxidized coenzyme Q10) was evaluated in male SD rats (7 weeks of age, n=10) using a tread mill. A rat was forced to run at a speed of 10 m/min on the tread mill machine (Type NK-73-4, Natsume Seisakusho Co., Ltd.). Then the speed was increased stepwise by 5 m/min in every 3 min, and the time when the rat could no longer run was measured (the maximum running time). The soybean oil solution of reduced coenzyme Q10 according to the Reference Example 1 (reduced coenzyme Q10/soybean oil solution=20 mg/ml) was prepared as a test substance and orally administered to rats as reduced coenzyme Q10 (note that it contained about 1% of oxidized coenzyme Q10) with a dose of 300 mg/kg. The maximum running times were measured before administration and 2 hours after administration and a prolongation of the maximum running time was calculated. Soybean oil was administered to the control group.
The anti-fatigue effect of oxidized coenzyme Q10 was evaluated in young rats in a manner similar to (Example 3).

[4] = system: male SD rats (61 to 63 weeks of age); assay: Tread mill test in aged rats (maximum running time, crossover); format: in vivo, rat; details: for Maximum running time of aged rats (in words) / Maximum Running Time, Time prolonged / Maximum Running Time, After administration, relative to solvent control (100): 300 mg/kg oral; for Maximum Running Time, Time prolonged: after minus before administration; for Maximum Running Time, After administration, relative to solvent control (100) / Maximum Running Time, Before administration, relative to solvent control (100): value in parentheses; for Maximum Running Time, After administration: after 300 mg/kg oral dose; for Maximum Running Time, After administration / Maximum Running Time, Before administration: crossover; for Maximum Running Time, Before administration: baseline before 300 mg/kg oral dose
Description: as §2
The anti-fatigue effect of reduced coenzyme Q10 (containing about 1% of oxidized coenzyme Q10) was evaluated in male SD rats (61 to 63 weeks of age, n=7) in a manner similar to (Example 3). This experiment was performed using a crossover method. […]

[5] = compared with oxidized coenzyme Q10, Japanese Patent Laid-Open No. 10-109933; cited from earlier work
[6] = femoral muscle, 100 mg/kg orally once a day for 5 days, rats 6 weeks of age
[7] = value in parentheses, control group = 100, 100 mg/kg orally, 5 days
[8] = femoral muscle, 100 mg/kg orally once a day for 5 days
[9] = value in parentheses, control group = 100

Row | Compound | Level of Coenzyme Q in Muscle, Q9 [1, 6] [µg/g] | Level of Coenzyme Q in Muscle, Total CoQ [1, 6] [µg/g] | Level of Coenzyme Q in Muscle, Q9, relative to control group (100) [1, 7] | Level of Coenzyme Q in Muscle, Total CoQ, relative to control group (100) [1, 7] | Intramuscular level of reduced coenzyme Q (in words) [2] | Level of Reduced Coenzyme Q in Muscle, Q9 [2, 8] [µg/g] | Level of Reduced Coenzyme Q in Muscle, Total CoQ [2, 8] [µg/g] | Level of Reduced Coenzyme Q in Muscle, Q9, relative to control group (100) [2, 9] | Level of Reduced Coenzyme Q in Muscle, Total CoQ, relative to control group (100) [2, 9] | Maximum Running Time, Time prolonged ([3]; 300 mg/kg oral) [s] | Maximum Running Time, After administration, relative to solvent control (100) ([3]; 300 mg/kg oral) | Maximum Running Time, Time prolonged, relative to solvent control (100) ([3]; 300 mg/kg oral) | Maximum Running Time, After administration [3] [s] | Maximum Running Time, Before administration [3] [s] | Maximum Running Time, Before administration, relative to solvent control (100) [3] | Maximum running time of aged rats (in words) [4] | Maximum Running Time, Time prolonged [4] [s] | Maximum Running Time, After administration, relative to solvent control (100) [4] | Maximum Running Time, After administration [4] [s] | Maximum Running Time, Before administration [4] [s] | also measured
1 | COC1=C(OC)C(=O)C(C/C=C(\C)CC/C=C(\C)CC/C=C(\C)CC/C=C(\C)CC/C=C(\C)CC/C=C(\C)CC/C=C(\C)CC/C=C(\C)CC/C=C(\C)CCC=C(C)C)=C(C)C1=O [Oxidized Coenzyme Q10, oxidized coenzyme Q10, reference compound] | 12.84 ± 2.03 | 14.18 ± 2.18 | (133) | (137) | decreased | 2.34 ± 0.42 | 2.45 ± 0.44 | (71*) | (68*) | 190 ± 76 | (108**) | (339**) | 1733 ± 107 | 1543 ± 99 | (100) | no prolongation effect | 14 ± 43 | (105) | 875 ± 108 | 861 ± 123 | Level of Reduced Coenzyme Q in Muscle, Q10, relative to control group (100) ([2]; rat, in vivo): (34**); Anti-fatigue effect in young rats (in words, compared with reduced coenzyme Q10) ([3]; 300 mg/kg oral): about the same as that of reduced coenzyme Q10; Maximum Running Time, Before administration, relative to solvent control (100) [4]: (100)
2 | COc1c(O)c(C)c(C/C=C(\C)CC/C=C(\C)CC/C=C(\C)CC/C=C(\C)CC/C=C(\C)CC/C=C(\C)CC/C=C(\C)CC/C=C(\C)CC/C=C(\C)CCC=C(C)C)c(O)c1OC [Reduced Coenzyme Q10, reduced coenzyme Q10] | 15.82 ± 2.89 | 17.39 ± 3.09 | (164*) | (168*) | increased | 5.32 ± 1.07 | 5.71 ± 1.16 | (162*) | (159*) | 196 ± 127 | (108*) | (349**) | 1719 ± 160 | 1523 ± 97 | (99) | significantly prolonged | 97 ± 28 | (115) | 958 ± 52 | 861 ± 123 | Endogenous coenzyme Q (in words) ([1]; after administration, endogenous = synthesized in vivo): increase of endogenous coenzyme Q; Level of Coenzyme Q in Muscle, Q10 [1, 6]: 1.57 ± 0.21 µg/g; Level of Coenzyme Q in Muscle, Q10, relative to control group (100) [1, 7]: (215**); Level of Reduced Coenzyme Q in Muscle, Q10 [2, 8]: 0.39 ± 0.24 µg/g; Level of Reduced Coenzyme Q in Muscle, Q10, relative to control group (100) [2, 9]: (122); Maximum running time of rats (in words) ([3]; 300 mg/kg oral): significantly prolonged; Maximum Running Time, Before administration, relative to solvent control (100) [4]: (100); Plasma level of coenzyme Q after oral administration (in words) [5]: raised the plasma level of coenzyme Q more than oral administration of oxidized coenzyme Q10
